According to patent US20140157443A1, “METHODS AND COMPOSITIONS FOR DETECTING AND MODULATING A NOVEL MTOR COMPLEX” (ST. JUDE CHILDREN'S RESEARCH HOSPITAL, priority 2011, published 2014):
Entries after “also recorded” stand apart in the source; their conditions may differ. Values belong to the molecule of their own block, whether it stands above or below them.

Tests used:
mTORC3 = biological target: T1, mTORC3 (Homo sapiens, UniProt P42345); assay: IP-kinase assay, TEL2 IP (mTORC3 alone) with recombinant 4E-BP1; type: biochemical; settings: Karpas-299 TEL2 IP, recombinant 4E-BP1, γ32P-ATP; FKBP12/Rapamycin 37 μg/ml/20 μM; OSI-27 10 μM
T1 construct: endogenous TEL2-expressing Karpas-299 cell lysates immunoprecipitated with mTOR (mTOR IP) or TEL2 (TEL2-IP) antibodies; endogenous in cells; host or cells: Karpas-299
Procedure: (§1) IgG indicates the immunoprecipitation with non-relevant IgG.
(§2) To determine the relative amounts of mTORC 1, 2 and 3, whole cell lysates of Karpas-299 cells were immunoprecipitated with non-relevant IgG, anti-mTOR, anti-TEL2, anti-Raptor, or anti-Rictor antibodies and the IPs were used for western blotting and in vitro kinase assays. […] For in vitro kinase assays, the IPs were incubated with recombinant 4E-BP1 or AKT in the presence of ATP.
(§3) Captured antibody-protein complexes were incubated with recombinant 4E-BP1 (Abcam) or AKT/PKB (Millipore) in the presence of (γ^32P-) ATP.

mTOR = biological target: T2, mTOR (Homo sapiens, UniProt P42345); assay: IP-kinase assay, mTOR IP (mTORC1+mTORC2+mTORC3) with recombinant 4E-BP1; type: biochemical; settings: Karpas-299 mTOR IP, recombinant 4E-BP1, γ32P-ATP; FKBP12/Rapamycin 37 μg/ml/20 μM; OSI-27 10 μM
T2 construct: endogenous TEL2-expressing Karpas-299 cell lysates immunoprecipitated with mTOR (mTOR IP) or TEL2 (TEL2-IP) antibodies; endogenous in cells; host or cells: Karpas-299
Procedure: as §1, §2, §3

Karpas-299 cells = assay: mTOR inhibition: proliferation of Karpas-299 cells over three population doublings; type: cell-based, human; settings: 0.1 to 10,000 ng/ml
Procedure: FIG. 5A provides a graph presenting cell density as a percent control of Karpas-299 cells. […] Cell densities were plotted as the percentage of cells treated with vehicle. […] Cell densities were plotted as the percentage of cells treated with vehicle.
(§4) Cells were plated in drug containing growth medium and followed for three population doublings.

[1] = test system: mTOR signaling in Karpas-299 cells; assay: Immunoblots of mTOR target phosphorylation, Ki-67 and LC3B in treated Karpas-299 cells; type: cell-based, human
Procedure: (§5) FIG. 5A provides a graph presenting cell density as a percent control of Karpas-299 cells. Logarithmically growing Karpas-299 cells were treated for three population doublings with increasing amounts (0.1, 0.3, 1, 3, 10, 30, 100, 300, 1000, 3000, 10,000 ng/ml) of Rapamycin, AZD-8055 or OSI-27. Cell densities were plotted as the percentage of cells treated with vehicle. FIG. 5B provides a graph presenting cell density as a percent control of mouse pre-B cells transduced with MSCV-IRES-GFP (vector) or MSCV-TEL2-IRES-GFP (TEL2) and treated with AZD-8055 or Rapamycin. Cell densities were plotted as the percentage of cells treated with vehicle. […] FIG. 5D provides immunoblots of the same Rapamycin-treated fractions of FIG. 5C probed for the presence of p-mTOR^Ser2448, p-AKT^Ser473, p-AKT^Thr308, p-P70S6K^Thr389, p-S6^Ser235/236, p-4E-BP1^Thr37/46 and for the autophagosome marker LC3B I/II.
(§6) For western blot analysis, cells were lysed in 1× lysis buffer (Cell Signaling Technologies). For co-IP experiments, cells were lysed in CHAPS lysis buffer and xenografts in 1× cell signaling lysis buffer. Co-IP was performed with 2 μg antibody whilst rotating at 4° C.

[2] = test system: TEL2-expressing primary Arf−/− mouse pre-B cells; assay: mTOR inhibition: proliferation of TEL2-expressing pre-B cells; type: cell-based
Procedure: as §5, §4

[3] = test system: mTOR signaling in TEL2-expressing Arf−/− mouse pre-B cells; assay: Immunoblots of mTOR target phosphorylation, KI-67 and LC3B in AZD-8055-treated TEL2-expressing pre-B cells; type: cell-based
Procedure: (§7) FIG. 5A provides a graph presenting cell density as a percent control of Karpas-299 cells. Logarithmically growing Karpas-299 cells were treated for three population doublings with increasing amounts (0.1, 0.3, 1, 3, 10, 30, 100, 300, 1000, 3000, 10,000 ng/ml) of Rapamycin, AZD-8055 or OSI-27. Cell densities were plotted as the percentage of cells treated with vehicle. FIG. 5B provides a graph presenting cell density as a percent control of mouse pre-B cells transduced with MSCV-IRES-GFP (vector) or MSCV-TEL2-IRES-GFP (TEL2) and treated with AZD-8055 or Rapamycin. Cell densities were plotted as the percentage of cells treated with vehicle. FIG. 5C provides m-TOR IP/immunoblots of lysates of the Rapamycin-treated Karpas-299 cells probed for the presence of Rictor, mSIN1, mLST8 and TEL2. FIG. 5D provides immunoblots of the same Rapamycin-treated fractions of FIG. 5C probed for the presence of p-mTOR^Ser2448, p-AKT^Ser473, p-AKT^Thr308, p-P70S6K^Thr389, p-S6^Ser235/236, p-4E-BP1^Thr37/46 and for the autophagosome marker LC3B I/II.
At 100 ng/ml AZD-8055, the autophagy salvage pathway was activated as detected by the change in the relative amounts of the LC3BI/II proteins.
as §6

[4] = test system: vector-transduced Arf−/− pre-B cells; assay: mTOR inhibition: proliferation of vector-transduced pre-B cells; type: cell-based, mouse
Procedure: as §7
To determine if mTORC3 is also insensitive to Rapamycin inhibition in vivo, Karpas-299 cells were treated with increasing amounts of drug for three population doublings. […] This was deduced from the steady relative intensities of LC3BI/II proteins at all Rapamycin concentrations (FIG. 5D). […]

[5] = biological target: T3, Raptor (human cell lines) (human, UniProt Q8N122 1-1335); assay: TEL2 IP / western blot, whole cell lysates of Karpas-299, K562 and OS-17 cells (FIG. 2B)
T3 construct: mTORC1 component
Procedure: as §6

SIN1 (human cell lines) = biological target: T4, SIN1 (human cell lines) (human, UniProt Q9BPZ7 2-522, limits assumed); assay: as above
T4 construct: mTORC2 component; also called mSIN1
Procedure: as §6

[6] = biological target: T5, RUVBL2 (bacterially-expressed, purified recombinant) (UniProt Q9Y230 1-463, limits assumed); assay: purified proteins co-incubated for 8 or 24 hours, TEL2 IP, western blot for RUVBL2 (FIG. 2C)
T5 construct: Used as a specificity control, a protein not part of mTORC3

[7] = biological target: Rictor of mouse Arf-/- pre-B cells (mouse, UniProt Q6QI06 1-1708); assay: TEL2 IP / western blot, whole cell lysates of mouse Arf-/- pre-B cells expressing TEL2 (FIG. 2A)
Procedure: as §6

[8] = biological target: T6, SIN1 of mouse Arf-/- pre-B cells (mouse, UniProt Q8BKH7 2-522, limits assumed); assay: as above
T6 construct: also called mSIN1
Procedure: as §6

[9] = biological target: T7, Rictor (human cell lines) (human, UniProt Q6R327 1-1708); assay: TEL2 IP / western blot of cytoplasmic, membrane and nuclear fractions of Karpas-299 cells (FIG. 3A)
T7 construct: mTORC2 component
Procedure: Nuclear, cytoplasmic and membrane fractions of Karpas-299 cells were subjected to IP-Western blotting to determine the cellular location of mTORC3.
as §6

T4 sequence (Q9BPZ7 2-522 limits assumed): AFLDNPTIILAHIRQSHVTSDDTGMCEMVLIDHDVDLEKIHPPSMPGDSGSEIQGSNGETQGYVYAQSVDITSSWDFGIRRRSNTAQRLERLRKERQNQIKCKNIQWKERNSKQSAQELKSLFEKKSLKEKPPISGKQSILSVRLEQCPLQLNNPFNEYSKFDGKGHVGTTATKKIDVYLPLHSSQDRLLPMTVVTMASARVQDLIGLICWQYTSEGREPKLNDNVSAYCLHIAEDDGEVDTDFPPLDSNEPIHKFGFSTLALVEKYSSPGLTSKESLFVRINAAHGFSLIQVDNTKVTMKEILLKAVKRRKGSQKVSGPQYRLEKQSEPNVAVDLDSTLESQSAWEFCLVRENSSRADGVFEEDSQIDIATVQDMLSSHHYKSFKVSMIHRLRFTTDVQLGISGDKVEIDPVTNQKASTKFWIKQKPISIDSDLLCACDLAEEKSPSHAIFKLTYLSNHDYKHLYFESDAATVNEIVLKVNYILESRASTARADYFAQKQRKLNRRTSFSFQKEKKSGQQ
T6 sequence (Q8BKH7 2-522 limits assumed): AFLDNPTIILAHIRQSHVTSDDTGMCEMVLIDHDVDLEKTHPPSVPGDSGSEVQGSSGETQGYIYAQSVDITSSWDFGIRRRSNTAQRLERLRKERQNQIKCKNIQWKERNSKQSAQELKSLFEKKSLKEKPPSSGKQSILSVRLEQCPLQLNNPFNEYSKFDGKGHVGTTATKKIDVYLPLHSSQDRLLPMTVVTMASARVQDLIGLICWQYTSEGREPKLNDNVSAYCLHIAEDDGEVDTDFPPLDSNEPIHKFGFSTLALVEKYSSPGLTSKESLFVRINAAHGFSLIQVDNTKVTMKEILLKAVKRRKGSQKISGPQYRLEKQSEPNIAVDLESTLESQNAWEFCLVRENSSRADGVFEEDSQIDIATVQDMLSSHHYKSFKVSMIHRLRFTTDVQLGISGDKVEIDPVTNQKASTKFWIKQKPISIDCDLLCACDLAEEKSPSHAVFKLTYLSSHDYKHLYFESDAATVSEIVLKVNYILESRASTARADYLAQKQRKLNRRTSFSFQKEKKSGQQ
T3 sequence (Q8N122 whole entry): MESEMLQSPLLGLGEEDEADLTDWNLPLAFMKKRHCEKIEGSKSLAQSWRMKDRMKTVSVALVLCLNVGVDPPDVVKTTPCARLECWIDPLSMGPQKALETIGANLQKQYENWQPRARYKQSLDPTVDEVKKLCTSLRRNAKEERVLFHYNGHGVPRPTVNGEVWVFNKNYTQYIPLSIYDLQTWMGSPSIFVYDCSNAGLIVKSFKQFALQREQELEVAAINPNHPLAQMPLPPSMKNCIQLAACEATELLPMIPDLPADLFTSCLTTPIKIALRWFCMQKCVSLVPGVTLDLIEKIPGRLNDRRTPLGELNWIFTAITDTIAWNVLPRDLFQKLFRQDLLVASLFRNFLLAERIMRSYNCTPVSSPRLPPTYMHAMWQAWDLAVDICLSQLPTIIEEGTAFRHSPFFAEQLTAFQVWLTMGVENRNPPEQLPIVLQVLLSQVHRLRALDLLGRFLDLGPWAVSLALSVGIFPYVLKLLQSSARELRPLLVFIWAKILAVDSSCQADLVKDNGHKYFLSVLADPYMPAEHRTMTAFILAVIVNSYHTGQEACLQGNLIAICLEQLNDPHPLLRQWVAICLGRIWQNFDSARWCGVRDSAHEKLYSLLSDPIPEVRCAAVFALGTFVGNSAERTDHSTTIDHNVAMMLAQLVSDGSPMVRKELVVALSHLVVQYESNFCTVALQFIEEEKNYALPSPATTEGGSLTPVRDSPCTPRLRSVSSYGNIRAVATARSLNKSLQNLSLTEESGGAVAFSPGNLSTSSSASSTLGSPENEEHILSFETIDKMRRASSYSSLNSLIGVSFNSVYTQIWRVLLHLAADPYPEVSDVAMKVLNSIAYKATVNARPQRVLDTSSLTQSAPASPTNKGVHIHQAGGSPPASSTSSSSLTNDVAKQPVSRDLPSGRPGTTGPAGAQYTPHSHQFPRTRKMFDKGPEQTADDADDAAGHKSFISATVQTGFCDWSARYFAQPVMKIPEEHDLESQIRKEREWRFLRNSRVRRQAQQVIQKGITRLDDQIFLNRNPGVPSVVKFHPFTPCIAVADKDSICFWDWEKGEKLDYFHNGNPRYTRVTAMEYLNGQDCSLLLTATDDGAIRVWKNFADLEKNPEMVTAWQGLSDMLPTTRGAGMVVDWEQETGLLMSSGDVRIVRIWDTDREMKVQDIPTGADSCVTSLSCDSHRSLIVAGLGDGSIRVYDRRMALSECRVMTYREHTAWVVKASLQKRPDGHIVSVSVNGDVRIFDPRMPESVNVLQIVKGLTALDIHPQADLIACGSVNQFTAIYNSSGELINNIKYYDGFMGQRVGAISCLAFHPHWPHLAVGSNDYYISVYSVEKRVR
T7 sequence (Q6R327 whole entry): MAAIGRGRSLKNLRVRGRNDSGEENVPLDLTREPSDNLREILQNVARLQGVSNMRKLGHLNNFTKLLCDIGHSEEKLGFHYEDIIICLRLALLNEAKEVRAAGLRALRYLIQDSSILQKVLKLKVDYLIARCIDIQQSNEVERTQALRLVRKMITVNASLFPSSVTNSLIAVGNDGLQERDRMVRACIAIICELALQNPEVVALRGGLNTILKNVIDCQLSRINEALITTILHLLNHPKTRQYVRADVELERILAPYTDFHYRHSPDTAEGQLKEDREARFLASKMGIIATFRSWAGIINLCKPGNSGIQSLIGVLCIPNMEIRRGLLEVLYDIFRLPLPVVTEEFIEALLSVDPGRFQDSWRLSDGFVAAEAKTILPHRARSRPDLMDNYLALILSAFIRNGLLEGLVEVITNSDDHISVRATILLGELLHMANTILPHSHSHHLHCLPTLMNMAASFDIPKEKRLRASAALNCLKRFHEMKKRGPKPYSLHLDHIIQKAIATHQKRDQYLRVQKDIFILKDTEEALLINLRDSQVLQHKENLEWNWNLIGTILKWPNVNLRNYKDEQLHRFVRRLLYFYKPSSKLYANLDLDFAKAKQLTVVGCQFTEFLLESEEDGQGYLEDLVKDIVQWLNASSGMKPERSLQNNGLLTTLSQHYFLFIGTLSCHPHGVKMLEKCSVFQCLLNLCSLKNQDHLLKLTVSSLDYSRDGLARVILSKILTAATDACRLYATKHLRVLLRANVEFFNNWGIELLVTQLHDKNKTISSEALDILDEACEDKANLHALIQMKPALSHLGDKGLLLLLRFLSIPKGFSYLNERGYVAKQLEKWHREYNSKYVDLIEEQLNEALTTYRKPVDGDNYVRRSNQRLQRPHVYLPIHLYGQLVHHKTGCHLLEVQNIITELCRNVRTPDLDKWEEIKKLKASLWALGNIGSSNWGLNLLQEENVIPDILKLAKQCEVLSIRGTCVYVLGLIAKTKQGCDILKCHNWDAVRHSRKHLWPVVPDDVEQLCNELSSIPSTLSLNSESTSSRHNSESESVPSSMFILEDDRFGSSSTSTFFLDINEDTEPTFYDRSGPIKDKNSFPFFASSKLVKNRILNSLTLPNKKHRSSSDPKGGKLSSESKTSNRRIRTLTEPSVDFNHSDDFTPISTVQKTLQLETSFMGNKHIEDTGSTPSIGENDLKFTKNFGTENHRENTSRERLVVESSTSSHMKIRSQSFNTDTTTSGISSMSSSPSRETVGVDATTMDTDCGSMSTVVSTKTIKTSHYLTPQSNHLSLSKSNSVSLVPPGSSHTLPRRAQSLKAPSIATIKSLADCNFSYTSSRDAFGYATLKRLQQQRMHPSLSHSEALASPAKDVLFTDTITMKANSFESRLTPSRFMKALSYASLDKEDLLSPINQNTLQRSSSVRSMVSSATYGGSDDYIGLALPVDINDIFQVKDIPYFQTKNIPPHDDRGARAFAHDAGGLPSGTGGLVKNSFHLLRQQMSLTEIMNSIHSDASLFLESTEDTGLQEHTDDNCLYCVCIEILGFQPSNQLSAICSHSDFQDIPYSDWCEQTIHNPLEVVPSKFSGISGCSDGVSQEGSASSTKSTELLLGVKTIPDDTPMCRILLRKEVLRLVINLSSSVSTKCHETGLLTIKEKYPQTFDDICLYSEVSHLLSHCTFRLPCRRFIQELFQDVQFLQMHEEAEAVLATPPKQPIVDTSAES
T5 sequence (Q9Y230 whole entry): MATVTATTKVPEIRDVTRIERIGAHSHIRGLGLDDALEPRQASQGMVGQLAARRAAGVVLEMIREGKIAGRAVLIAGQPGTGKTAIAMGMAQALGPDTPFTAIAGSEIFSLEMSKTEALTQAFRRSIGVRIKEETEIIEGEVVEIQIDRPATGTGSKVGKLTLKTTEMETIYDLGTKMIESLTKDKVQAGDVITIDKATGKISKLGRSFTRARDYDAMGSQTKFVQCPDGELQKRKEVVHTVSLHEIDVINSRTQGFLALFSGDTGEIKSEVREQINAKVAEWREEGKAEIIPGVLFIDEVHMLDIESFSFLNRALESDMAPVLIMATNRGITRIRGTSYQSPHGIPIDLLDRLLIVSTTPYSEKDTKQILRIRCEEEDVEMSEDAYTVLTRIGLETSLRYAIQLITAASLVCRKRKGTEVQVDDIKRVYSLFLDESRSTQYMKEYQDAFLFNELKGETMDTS

Molecule: COc1cccc2cc(-c3nc([C@H]4CC[C@H](C(=O)O)CC4)n4ncnc(N)c34)[nH]c12 [OSI-27]
4E-BP1 phosphorylation (kinase activity) by TEL2 IP (mTORC3): reduced 4E-BP1 phosphorylation to levels comparable with IPs using control IgG
4E-BP1 phosphorylation (kinase activity) by mTOR IP (mTOR): reduced 4E-BP1 phosphorylation to levels comparable with IPs using control IgG
Proliferation of Karpas-299 cells (Karpas-299 cells): completely inhibited proliferation
mTORC3 signaling / kinase activity in cultured cells [1]: sensitive; also recorded: fully inhibited

Molecule: COc1ccc(-c2ccc3c(N4CCOC[C@@H]4C)nc(N4CCOC[C@@H]4C)nc3n2)cc1CO [AZD-8055]
Proliferation of Karpas-299 cells (Karpas-299 cells): completely inhibited proliferation
Drug concentration that completely inhibited proliferation [2]: > 100 ng/mL
Concentration giving complete loss of 4E-BP1 Thr37/46, P70S6K Thr389 and AKT Ser473 phosphorylation, coinciding with loss of cell proliferation ([1]; Karpas-299): 100 ng/mL
Phosphorylation of AKT Thr308 ([1]; Karpas-299): remained stable
Autophagy salvage pathway (relative amounts of LC3BI/II) ([1]; Karpas-299, 100 ng/ml): activated
Ki-67 antigen (transition to G0 phase) ([1]; Karpas-299, 100 ng/ml): loss of the Ki-67 antigen
mTORC3 signaling / kinase activity in cultured cells [1]: sensitive; also recorded: fully inhibited
Autophagy salvage pathway ([3]; TEL2-expressing pre-B cells): did not induce the autophagy salvage pathway
Cell survival ([3]; TEL2-expressing pre-B cells after complete loss of mTOR signaling): died rapidly
p-Akt Ser473, p-S6 Ser235/236, p-4E-BP1 Thr37/46 phosphorylation and KI-67 antigen ([3]; TEL2-expressing pre-B cells, >100 ng/ml): loss of p-Akt^Ser473, p-S6^Ser235/236, p-4E-BP1^Thr37/46 phosphorylation and loss of the KI-67 antigen

Molecule: CO[C@H]1C[C@@H]2CC[C@@H](C)[C@@](O)(O2)C(=O)C(=O)N2CCCC[C@H]2C(=O)O[C@H]([C@H](C)C[C@@H]2CC[C@@H](O)[C@H](OC)C2)CC(=O)[C@H](C)/C=C(\C)[C@@H](O)[C@@H](OC)C(=O)[C@H](C)C[C@H](C)/C=C/C=C/C=C/1C [Rapamycin]
Drug concentration at which cells stopped proliferating [4]: > 0.3 ng/mL
Concentration causing marked reduction of p-AKT Ser473 phosphorylation ([1]; Karpas-299): > 0.3 ng/mL

binding result [5]: no binding
binding result (SIN1 (human cell lines)): no binding
binding result [6]: no binding
binding result [7]: no binding
binding result [8]: no binding
binding result [9]: no binding
B1: TEL2 (translocation Ets leukemia 2 / Ets variant gene 7) (other)
chain: MQEGELAISPISPVAAMPPLGTHVQARCEAQINLLGEGGICKLPGRLRIQPALWSREDVLHWLRWAEQEYSLPCTAEHGFEMNGRALCILTKDDFRHRAPSSGDVLYELLQYIKTQRRALVCGPFFGGIFRLKTPTQHSPVPPEEVTGPSQMDTRRGHLLQPPDPGLTSNFGHLDDPGLARWTPGKEESLNLCHCAELGCRTQGVCSFPAMPQAPIDGRIADCRLLWDYVYQLLLDTRYEPYIKWEDKDAKIFRVVDPNGLARLWGNHKNRVNMTYEKMSRALRHYYKLNIIKKEPGQKLLFRFLKTPGKMVQDKHSHLEPLESQEQDRIEFKDKRPEISP
notes: Endogenous in the human cell lines and xenografts; Exogenous (MSCV-TEL2-IRES-GFP) in mouse Arf-/- pre-B cells; Purified from transfected HEK 293T cells for the in vitro association; also called TEL2/ETV7; ETV7
